Results as given in patent publication US11363815B2, “Trifluoroethyl thioether (sulfoxide) substituted benzene compound and use thereof” (SHENYANG UNIVERSITY OF CHEMICAL TECHNOLOGY, priority 2018, dated 2022).

Tested on: Tetranychus cinnabarinus eggs
Assay: Determination of activity of Tetranychus cinnabarinus eggs (greenhouse spray test)
Format: in vivo
Conditions: 120 h, concentration of the chemical solution 5 mg/L, spray treatment of eggs on marrow bean leaf, examined after 5 days, read-out: hatching inhibition rate for Tetranychus cinnabarinus eggs
Protocol: The acaricidal activity in a greenhouse was determined by using the compound of the present invention. The determination method is as follows: According to the solubility of the compound to be tested, the compound was dissolved with acetone or dimethyl sulfoxide, and prepared into 50 ml of solution to be tested in a concentration needed with 0.1% Tween 80 solution, in which the content of acetone or dimethyl sulfoxide comprises not more than […]. A potted marrow bean seedling with two true leaves was taken, one true leaf was removed, then 10 female adult mites of healthy Tetranychus cinnabarinus were inoculated to the leaf, the adult mites were removed after 24 hours, spray treatment was performed after examination of the number of eggs. Every treatment was performed for 3 times. After 5 days, when all the blank control eggs were incubated, the number of the eggs which were not incubated in each treatment was examined to calculate the incubation inhibition rate.

Structure (SMILES)	inhibition at 5 µg/mL [%]
Cc1cc(F)c(N2Cc3ccccc3C2=O)cc1[S+]([O-])CC(F)(F)F (centres unmarked) [compound 2]	≥ 90
Cc1cc(F)c(N2Cc3ccccc3C2=O)cc1SCC(F)(F)F [compound 1]	≥ 90
